Measured values as given in patent US20110217309A1, “BIOLOGICAL MARKERS PREDICTIVE OF ANTI-CANCER RESPONSE TO INSULIN-LIKE GROWTH FACTOR-1 RECEPTOR KINASE INHIBITORS” (priority 2010, published 2011).

How the values were obtained:
A2780 = experiment: Cell Titer Glo proliferation assay, 88 cell line panel; assay type: cell-based, human; conditions: A2780 ovarian cancer, PTEN mutant, 72 hours
Description: (§1) Proliferation Assay. […] The basis of the assay is a luminescent quantitation of ATP present in a cell culture plate well. In essence, the greater the number of viable cells in the well, the greater the level of ATP present. The assay utilizes a substrate that binds ATP to produce a luminescent signal, which can be read on a luminometer. Unless otherwise noted, the manufacturer's instructions were followed exactly. Briefly, on Day 1, cells were plated in 120 μl of 10% serum-containing growth media at a density of 4000 cells/well in a white polystyrene 96 well assay plate. […] After 72 h incubation with the inhibitor, the cells were assayed. Results were calculated as a fraction of the DMSO controlled cells.
(§2) This included cell lines representing ovarian cancer (A2780 and EFO-27), SCCHN (HSC-4), SCLC (NCI-H446), CRC (KM12), lymphoma (MC116), breast cancer (BT549 and HCC70), and prostate cancer (PC3).

KM12 = experiment: as above; assay type: cell-based, human; conditions: KM12 CRC, PTEN mutant, 72 hours
Description: as §1, §2

MC116 = experiment: as above; assay type: cell-based, human; conditions: MC116 lymphoma, PTEN mutant, 72 hours
Description: as §1, §2

Colo205 tumors = experiment: Tumor xenograft study; conditions: treatment in vivo for 10-14 days
FaDu tumors = experiment: Tumor xenograft study; conditions: treatment in vivo for 10-14 days
Akt = experiment: Phosphorylation of Akt (pAKT levels); assay type: cell-based; conditions: OSI-906, in the presence or absence of pactitaxel (100, 30, 10, 3, 1 nM)
Description: The dotted line in the plot represents the calculated theoretical expectation if the combination was additive in nature, and was determined using the Bliss model for additivity. […] C.
The dotted line in the plot represents the calculated theoretical result if the combination was additive in nature, and was determined using the Bliss model for additivity.

SMILES: C[C@]1(O)C[C@@H](c2nc(-c3ccc4ccc(-c5ccccc5)nc4c3)c3c(N)nccn32)C1 [OSI-906, cis-3-[8-amino-1-(2-phenyl-quinolin-7-yl)-imidazo[1,5-a]pyrazin-3-yl]-1-methyl-cyclobutanol]
- sensitivity to OSI-906 (A2780): insensitive (insensitive (EC50>10 μM))
- sensitivity to OSI-906 (KM12): insensitive (insensitive (EC50>10 μM))
- sensitivity to OSI-906 (MC116): insensitive (insensitive (EC50>10 μM))
- % TGI (tumor growth inhibition) (Colo205 tumors): 90%
- % TGI (tumor growth inhibition) (FaDu tumors): < 30%
- phosphorylation of Akt (pAKT levels) (Akt): decrease
